{"source": "patent EP1980559A1", "about": "“Cardiovascular agents” (CTG Pharma S.r.l., priority 2007, dated 2008)", "key": {"[1]": {"tested_on": "spontaneously hypertensive rats (SHRs)", "experiment": "Antihypertensive activity in vivo: systolic blood pressure by telemetry in conscious SHRs", "conditions": "daily oral dose for 3 days, losartan 10 mg/kg po or equimolar dose; for Systolic blood pressure (SBP) 1 hr: 1 hr after dosing; for Systolic blood pressure (SBP) 12 hr: 12 hr after dosing; for Systolic blood pressure (SBP) 24 hr: 24 hr after dosing", "experimental": "The ability of compound of example 1 to decrease blood pressure was evaluated in conscious spontaneously hypertensive rats (SHRs).\nThree groups of SHRs (250-300g) received daily oral dose of losartan (10 mg/kg po) or compound of example 1 (equimolar dose) or vehicle (SHR control group) for 3 days. Systolic blood pressure (SBP) and heart rate were monitored by telemetry at different time points after dosing. The SBP was measured at baseline and after 1 hour, 12 hours and 24 hours."}, "NAD(P)H oxidases [2]": {"tested_on": "NAD(P)H oxidases", "experiment": "NAD(P)H oxidases inhibition: superoxide (O2^-) release by ferricytochrome c reduction in PAECs", "format": "cell-based, porcine", "conditions": "PAECs stimulated with LPS, TNFα and IL1α; 100 nM; 16 hours incubation", "experimental": "(§1) The method described by Muzaffar S, Shukla N, Angelini GD, Jeremy JY; \"Prednisolone augments superoxide formation in porcine pulmonary artery endothelial cells through differential effects on the expression of nitric oxide synthase and NADPH oxidase\" in Br. J. Pharmacol. 2005 Ju1;145(5):688-97 was used.\n(§2) Briefly lungs were obtained from male pigs of body weight ranging from 20 - 35 kg. Pulmonary arteries (PA) of between 3-4 mm diameter were dissected from the lungs within 30 minutes and placed in Dulbecco's Minimum Essential Medium (DMEM). The arteries were then cut into 2 mm segments for preparation of cell cultures. PAECs were grown in Endothelial Cell Growth Medium at 37°C in a 95% air-5% CO2 incubator. The measurement of superoxide (O2^-) release by cells was performed by detection of ferricytochrome c reduction.\n(§3) The reduction of cytochrome c that was inhibitable with SOD reflected actual O2^- release. PAVSMCs and PAECS were seeded and incubated with the TXA2 analogue, U46619, isoprostane F2α,LPS (endotoxin) human recombinant IL-1α and human recombinant TNF-α, alone or with drugs for 16 hours. RESULTS\n(§4) LPS, IL-1α, TNF-α and U46619 all promoted the formation of O2^- in both porcine pulmonary artery VSMCs (PAVSMCs) and endothelial cells (PAECS) compared to untreated controls following a 16 hour incubation. […]"}, "[3]": {"tested_on": "isolated rabbit thoracic aorta preparations", "experiment": "Study on vascular tone: vasorelaxation in isolated rabbit thoracic aorta preparations", "conditions": "aorta rings contracted submaximally with noradrenaline (1 µM); concentration-response curve", "experimental": "The ability of ARB derivatives to induce vasorelaxation in comparison to native ARB, was tested in vitro in isolated rabbit thoracic aorta preparations (Wanstall J. C. et al., Br. J. Pharmacol., 134:463-472, 2001). Male New Zealand rabbits were anaesthetized with thiopental-Na (50 mg/kg, iv), sacrificed by exsanguinations and then the thorax was opened and the aorta dissected.\nSingle ring preparations (4 mm in length) of thoracic aorta were set up in physiological salt solution at 37 °C in small organ chambers (5 ml). Each ring was mounted under 2g passive tension in 5 ml organ bath. Preparations were allowed to equilibrate for 1 h, then contracted submaximally with noradrenaline (NA, 1 µM) and, when the contraction was stable, acetylcholine (ACh, 10 µM) was added.\nA relaxant response to ACh indicated the presence of a functional endothelium."}, "NAD(P)H oxidases [4]": {"tested_on": "NAD(P)H oxidases", "experiment": "NAD(P)H oxidases inhibition: superoxide (O2^-) release by ferricytochrome c reduction in PAVSMCs", "format": "cell-based, porcine", "conditions": "PAVSMCs stimulated with LPS, TNFα and IL1α; 100 nM; 16 hours incubation", "experimental": "as §1, §2, §3, §4"}}}
{"compound": "CCCCc1nc(Cl)c(COC(=O)c2ccc(-c3cssc3=S)cc2)n1Cc1ccc(-c2ccccc2-c2nn[nH]n2)cc1", "note": "[Cpd EX.1, 4-(3-thioxo-3H-1,2-dithiol-4-yl)benzoic acid 2-butyl-4-chloro-1-[p-(o-1H-tetrazol-5-ylphenyl)-benzyl]imidazole-5-methyl ester]", "values": [{"measurement": "Systolic blood pressure (SBP) 1 hr", "setting": "[1]", "value": 120, "unit": "mm Hg"}, {"measurement": "Systolic blood pressure (SBP) 12 hr", "setting": "[1]", "value": 121, "unit": "mm Hg"}, {"measurement": "Systolic blood pressure (SBP) 24 hr", "setting": "[1]", "value": 122, "unit": "mm Hg"}, {"measurement": "Systolic blood pressure (SBP) Baseline", "setting": "[1]", "value": 145, "unit": "mm Hg"}]}
{"compound": "CCCCc1nc(Cl)c(CO)n1Cc1ccc(-c2ccccc2-c2nn[nH]n2)cc1", "note": "[Losartan, losartan]", "values": [{"measurement": "formation of O2^-", "setting": "NAD(P)H oxidases [2]", "value": "no significant effect"}, {"measurement": "Systolic blood pressure (SBP) 1 hr", "setting": "[1]", "value": 135, "unit": "mm Hg"}, {"measurement": "Systolic blood pressure (SBP) 12 hr", "setting": "[1]", "value": 134, "unit": "mm Hg"}, {"measurement": "Systolic blood pressure (SBP) 24 hr", "setting": "[1]", "value": 135, "unit": "mm Hg"}, {"measurement": "Systolic blood pressure (SBP) Baseline", "setting": "[1]", "value": 143, "unit": "mm Hg"}, {"measurement": "relaxation", "setting": "[3]", "value": "did not produce relaxation at any of the concentration tested"}, {"measurement": "formation of O2^-", "setting": "NAD(P)H oxidases [4]", "value": "no significant effect"}]}
